Patent publication US8207136B2, “Nucleoside compounds and methods of use thereof” (The Board of Trustees of the University of Illinois, priority 2005, dated 2012)
pIC50: −log10 of the molar value. Read-outs that look alike come from different tables or passages of the source. Starred links: 1 amine or outer side, 2 acyl side, 3 side chain; linkers in the order of their positions; H or OH if unused. Positions of bridges follow the written chain, without caps; N, C: chain ends. Non-standard residues stand in square brackets, D forms with d. Residues, ends and D or L forms follow the SMILES beside them. Chains are numbered I, II in the order given. Actinocin(9to1) = Cc1c2oc3c(C)ccc(C(=O)[*:1])c3nc-2c(C(=O)[*:2])c(N)c1=O; NMeV = CN[C@H](C(=O)O)C(C)C; Sar = CNCC(=O)O

What was measured:
[1] = molecular target: T1, RNA polymerase II (Homo sapiens, UniProt P24928); assay: Nuclear run-on assay, nuclei isolated from untreated HCT-116 cells then treated; format: biochemical; conditions: 50 μM ARC, 50 μM DRB or 2 μg/ml α-amanitin
T1 construct: nuclei were isolated from normally growing untreated HCT-116 cells and treated with each of these agents; endogenous in cells; host or cells: nuclei of HCT-116 colon cancer cells
Method: (§1) Run-on assays with isolated nuclei were performed as described. Briefly, cells treated with the indicated agents were lysed with hypotonic buffer (10 mM Tris-HCl pH 7.4, 10 mM NaCl and 35 mM MgCl2) and nuclei collected by centrifugation and resuspended in nuclear storage buffer (50 mM HEPES pH 8.0, 5 mM MgCl2, 0.5 mM DTT, 1 mg/ml BSA and 25% (v/v) glycerol) at about 5×10^8 nuclei/ml and stored at −80° C. Transcription reactions were performed in 200 μl volume consisting of 1×10^7 nuclei in the presence of 0.12 M KCl, 7 mM Mg(Ac)2, 25 μCi of [^32P]GTP, 500 μM ATP, UTP and CTP at 30° C. Samples were collected at various time points (18 μl/time point—0, 5, 10, 20 and 30 min) and the reaction terminated by the addition of 57 μl of Sarkosyl solution (1% Sarkosyl, 0.1 M Tris pH 8.0, 0.1 M NaCl, 10 mM EDTA and 200 μg/ml tRNA). The stopped reactions were transferred to Whatman DE81 paper, and washed four times with wash buffer (5% K2HPO4 and 0.3% Na4P2O7) for 10 min, followed by a 5-min water wash. Then the paper was briefly rinsed with 95% ethanol and allowed to dry completely. Radiation was quantitated using a liquid scintillation counter.
In order to evaluate the ability of ARC to bind to and inhibit RNA polymerase II directly (like α-amanitin) or indirectly (like DRB), nuclei were isolated from normally growing untreated HCT-116 cells and treated with each of these agents, and then assayed for rate of transcription by nuclear run-on assay.

[2] = tested on: p53; assay: Gel shift assay with nuclear extracts and p53 consensus probe; format: cell-based, human; conditions: MCF-7 nuclear extracts
Method: Either purified p53 protein or nuclear extracts were used in the gel shift assays. For preparation of nuclear extracts, cells treated either with DMSO or different agents (doxorubicin, ARC and actinomycin D) were harvested 24 hours later and lysed in hypotonic buffer (10 mM HEPES pH 7.9, 1.5 mM MgCl2, 10 mM KCl, 0.2 mM PMSF, 0.5 mM DTT, 1 mM Na3VO4, 1 mM NaF, 1 mM Aprotinin and 1 mM Leupeptin), nuclei pelleted and treated with high-salt buffer (20 mM HEPES pH 7.9, 20% (v/v) glycerol, 1.5 mM MgCl2, 0.5 M KCl, 0.2 mM EDTA, 0.2 mM PMSF, 0.5 mM DTT, 1 mM Na3VO4, 1 mM NaF, 1 mM Aprotinin and 1 mM Leupeptin). Nuclear extracts (10 μg) or purified p53 protein (100 ng) were incubated with 0.5 ng of p53 consensus double-stranded oligos (5′-TACAGAACATGTCTAAGCATGCTGGGGACT-3′; Santa Cruz Biotechnology) that were labeled with [γ^32P]ATP. As a control, anti-p53 antibody (PAb421, EMD Biosciences) was used to supershift the p53/DNA complex. The reaction mixtures were resolved on a 4% acrylamide DNA-retardation gel, dried and exposed to X-ray film in the presence of intensifying screen.
Although the effects of ARC were p53-independent, ARC did affect some properties of p53. […] This is in contrast to actinomycin D, which is known to enhance the DNA binding ability of p53 [22]. […] To determine if ARC retains p53 in the cytoplasm, which may lead to decreased binding in the gel shift assays, p53 levels in nuclear lysates were examined.

[3] = tested on: HUVECs; conditions: literature value [28]; read-out: IC50, cell motility; cited from earlier work
[4] = tested on: HUVECs; conditions: literature value [28]; read-out: IC50, cord formation; cited from earlier work
[5] = tested on: RNA polymerase II transcription; assay: Nuclear run-on assay, nuclei from treated HCT-116 cells; format: cell-based, human; conditions: HCT-116 cells treated 2 hours with 1 mM
Method: as §1
Some transcriptional inhibitors such as DRB and flavopiridol repress p21 and hdm2 while increasing p53 levels. […] To evaluate this activity, HCT-116 cells were treated with one of DMSO (control), ARC or DRB, and nuclei were isolated. These nuclei were assayed for rate of transcription either in the presence or absence of α-amanitin using the nuclear run-on assay. […] If ARC inhibits polymerase I and III transcription, the rate of transcription should be substantially lower in the ARC+α-amanitin (FIG. 2A; curve 5) when compared with DMSO+α-amanitin (FIG. 2A; curve 4). However both of these rates of transcription were similar, implying that ARC might preferentially affect only RNA polymerase II transcription.

[6] = tested on: LIM1215 colon cancer cells; assay: Apoptosis by PI staining and flow cytometry in LIM1215 cells; format: cell-based, human; conditions: 50 μM, 48 hours
Method: For Flow Cytometry, cells were fixed in 70% ethanol and stored at −20° C. until further analysis. Equal numbers of fixed cells were then stained with PI solution (0.1% Triton X-100, 0.2 mg/ml DNase free RNase, 0.02 mg/ml propidium iodide) made in PBS for 15 min at 37° C. and analyzed by a flow cytometer.
In order to evaluate the extent to which ARC induces apoptosis relative to that of the other known nucleoside analog DRB, LIM1215 colon cancer cells were treated with either ARC or DRB for 48 hours.

CC[C@H](C)[C@@H]1NC(=O)CNC(=O)[C@@H]2Cc3c([nH]c4cc(O)ccc34)[S+]([O-])C[C@@H](NC(=O)CNC1=O)C(=O)N[C@@H](CC(N)=O)C(=O)N1C[C@H](O)C[C@H]1C(=O)N[C@@H]([C@@H](C)[C@@H](O)CO)C(=O)N2 (stereo in doubt) [α-amanitin]
rate of transcription, agent added to isolated nuclei [1]: dramatically inhibited transcription

Cc1c2oc3c(C)ccc(C(=O)N[C@@H]4C(=O)N[C@H](C(C)C)C(=O)N5CCC[C@H]5C(=O)N(C)CC(=O)N(C)[C@@H](C(C)C)C(=O)O[C@@H]4C)c3nc-2c(C(=O)N[C@@H]2C(=O)N[C@H](C(C)C)C(=O)N3CCC[C@H]3C(=O)N(C)CC(=O)N(C)[C@@H](C(C)C)C(=O)O[C@@H]2C)c(N)c1=O [actinomycin D, reference compound] (I: T[dV]P[Sar][NMeV] / II: T[dV]P[Sar][NMeV]; ester I:1-I:C, II:1-II:C; linker I:N-II:N via Actinocin(9to1))
DNA binding ability of p53, agent alone [2]: increased the DNA binding ability of p53

CO[C@@H]1[C@H](OC(=O)NC(=O)CCl)CC[C@]2(CO2)[C@H]1[C@@]1(C)O[C@@H]1CC=C(C)C [TNP-470]
pIC50 [3]: ~6.22
pIC50 [4]: ~6.15

OC[C@H]1O[C@@H](n2cnc3cc(Cl)c(Cl)cc32)[C@H](O)[C@@H]1O [DRB, 5,6-Dichloro-1-β-ribofuranosylbenzimidazole, reference compound]
rate of transcription, agent added to isolated nuclei [1]: did not affect the rate of transcription
rate of transcription versus control nuclei [5]: lower
apoptosis (PI staining, flow cytometry) [6]: 23.4%
